Data taken from patent US6489329B2, “Pharmaceutical compositions for the treatment of rhinitis” (UCB S.A., priority 1996, dated 2002).
Where a name gives a salt, the structure may show the parent alone.

Tests used:
[1] = tested on: patients suffering from perennial allergic rhinitis; assay: phase III multicenter double-blind 3-week study in perennial allergic rhinitis; type: in vivo, human; conditions: for Mean of maximal 5-symptom scores, Visit 2: control visit one week after visit 1, investigators' 4-point scale 0-3; for global evaluation by the investigators: patients in categories "Good improvement" and "No more symptoms", grouped: end of treatment (visit 3), capsule morning and evening, 5-point scale; for Mean of maximal 5-symptom scores, Visit 1: enrolment visit, investigators' 4-point scale 0-3; for PDS0 (percentage of days with a maximal symptom score equal to 0), mean / PDS1 (percentage of days with a maximal symptom score inferior or equal to 1), mean: patients' daily record card, five symptoms, 3-week study
Method: (§1) The efficacy and safety of a composition of the invention were evaluated for the treatment of rhinitis, especially perennial and seasonal rhinitis, by the following phase III multicenter, double-blind studies. The composition of the invention was compared to:
(§2) For each study, patients enrolled were ranged in three therapeutic groups and were treated as follows:
(§3) The patients' clinical evaluations made by the investigators at the end of the studies were based on a 5-point scale (0=worsening; 1=no change; 2=slight improvement; 3=good improvement; 4=no more symptoms). The Cochran-Mantel-Haenszel test was used to compare the frequency distribution of the three groups, and for specific comparisons.
(§4) At home, patients had to fill a daily record card where the five following symptoms were evaluated: sneezing, runny nose, blocked nose, itchy nose and itchy eyes. The symptoms scores were based on a 4-point scale (0: absent; 1: mild; 2: moderate; 3: severe). […] Global comparisons were made using the Kruskal-Wallis test and specific comparisons were made with the Wilcoxon rank sum test.
(§5) Three visits were planned during the study: enrolment visit (Visit 1), control visit (Visit 2) one week after visit 1 and final visit (Visit 3). At visits 1 and 2, investigators evaluated the specific symptoms of allergic rhinitis (sneezing, rhinorrhea, nasal obstruction, nasal pruritus and ocular pruritus) using the 4-point scale (0: absent; 1: mild; 2: moderate; 3: severe). The rhinitis severity was evaluated by taking into account the maximal score of the five symptoms. The three groups were compared using the Cochran-Mantel-Haenszel test based on ranks.
(§6) The patients were asked about possible adverse events at each control visit. In each treatment group, adverse events were counted and grouped in classes. The frequency distributions of these adverse effect numbers were compared using the Cochran-Mantel-Haenszel test.
A total of 554 patients were enrolled in this 3-week study. These patients ranged in age from 12 to 67 years old. They had to suffer from perennial allergic rhinitis diagnosed at least one year prior to the study, with radio allergosorbent test (RAST) or prick-test positive to perennial allergens including dust, mites and/or animal danders. On enrolment day, patients had to have the following symptoms: nasal obstruction, sneezing and rhinorrhea.

[2] = tested on: patients suffering from pollen-associated allergic rhinitis; assay: phase III multicenter double-blind 2-week study in pollen-associated (seasonal) allergic rhinitis; type: in vivo, human; conditions: for Incidence of asthenia / Incidence of headache / Incidence of insomnia / Incidence of somnolence / proportion of patients with at least one adverse effect / PDS0 (percentage of days with a maximal symptom score equal to 0), mean / PDS1 (percentage of days with a maximal symptom score inferior or equal to 1), mean: 2-week study; for Mean of maximal 5-symptom scores, Visit 2: control visit one week after visit 1, investigators' 4-point scale 0-3; for global evaluation: patients in categories "Good improvement" and "No more symptoms", grouped: end of 2-week study, capsule morning and evening, 5-point scale; for Mean of maximal 5-symptom scores, Visit 1: enrolment visit, investigators' 4-point scale 0-3; for PDS0 (percentage of days with a maximal symptom score equal to 0), mean / PDS1 (percentage of days with a maximal symptom score inferior or equal to 1), mean: maximal score of five symptoms
Method: as §1, §2, §3, §4, §5, §6
A total of 687 patients enrolled in this 2-week study, their ages ranging from 12 to 67 years. They had to be suffering from pollen-associated allergic rhinitis, with a prick-test or a RAST positive to pollen. […] On enrolment day, the patients had to be experiencing nasal obstruction and at least two of the four following symptoms: sneezing, rhinorrhea, nasal pruritus, ocular pruritus.

Row | Structure (SMILES) | Mean of maximal 5-symptom scores, Visit 2 [1] | global evaluation by the investigators: patients in categories "Good improvement" and "No more symptoms", grouped [1] | Mean of maximal 5-symptom scores, Visit 1 [1] | PDS0 (percentage of days with a maximal symptom score equal to 0), mean [1] | PDS1 (percentage of days with a maximal symptom score inferior or equal to 1), mean [1] | Incidence of asthenia [2] | Incidence of headache [2] | Incidence of insomnia [2] | Incidence of somnolence [2] | proportion of patients with at least one adverse effect [2] | Mean of maximal 5-symptom scores, Visit 2 [2] | global evaluation: patients in categories "Good improvement" and "No more symptoms", grouped [2] | Mean of maximal 5-symptom scores, Visit 1 [2] | PDS0 (percentage of days with a maximal symptom score equal to 0), mean [2] | PDS1 (percentage of days with a maximal symptom score inferior or equal to 1), mean [2] | sedation, frequency of adverse event ([1]; comparison between the three groups)
1 | CN[C@@H](C)[C@@H](O)c1ccccc1.Cl [Pseudoephedrine, (1S,2S)2-methylamino-1-phenylpropan-1-ol hydrochloride] | 1.81 | 48% | 2.72 | 6.97% | 41.57% | 1% | 7% | 8.5% | 3% | 30% | 1.82 | 58% | 2.78 | 5.44% | 37.21% | –
2 | O=C(O)COCCN1CCN(C(c2ccccc2)c2ccc(Cl)cc2)CC1 (racemic) [Cetirizine, 2-[2-[4-[(4-chlorophenyl)phenylmethyl]-1-piperazinyl]ethoxy]-acetic dihydrochloride] | 1.82 | 46% | 2.66 | 6.60% | 43.26% | 4% | 4% | 0% | 6% | 23% | 1.76 | 56% | 2.77 | 6.41% | 39.81% | more frequent
